The series in a line: Specific cake resistance measurement (pressure filtration of crystal slurry, Tiller equation). In kind it is physicochemical. The method, then:
There follows examples of the present invention controlled crystallization process yielding crystalline material having improved filter cake specific resistance. For each of these examples, the filter cake specific resistance was measured in accordance with the following procedure. Specific Cake Resistance Measurement Procedure V(i): Into a pressure filter, the crystal slurry was filled. The filtration was then carried out under a constant pressure while the filtrate volume along with the filtration time was logged. During the cake formation, the relationship between the filtrate volume and the filtration time can be described by the Tiller equation: [formula] where: μ is the viscosity of filtrate, lb/ft-s or Pa·s; α is a specific cake resistance, ft, lb or […]; c is the mass solid deposited in the filter per unit volume of filtrate, lb/ft^3 or kg/m^3: A is the filtration area, ft^2 or m^2; gc is Newton's law proportionality factor; p is the pressure, lbf/ft2 or atm; Rm is the filter-medium resistance, ft^−1 or m^−1. The specific cake resistance a can be calculated from the slope of the linear plot of t/V vs. V.

Molecules are shown by their SMILES.

From patent publication US20100249439A1, “PROCESS FOR CONTROLLED CRYSTAL SIZE IN 1,2-SUBSTITUTED 3,4-DIOXO-1-CYCLOBUTENE COMPOUNDS” (priority 2007, published 2010) come the findings set out here.

Take `CC[C@@H](Nc1c(Nc2cccc(C(=O)N(C)C)c2O)c(=O)c1=O)c1ccc(C)o1` [compound of Formula I, 2-Hydroxy-N,N-dimethyl-3-[[2-[[1(R)-(5-methyl-2-furanyl)propyl]amino]-3,4-dioxo-1-cyclobuten-1-yl]amino]benzamide]: the “filter cake specific resistance” value (Form 4 crystals precipitated from the reaction mixture of Scheme IIa steps a and b, conventional crystallization without temperature cycling) is on record as “about 8.0×10^11 m/kg”; the “filter cake specific resistance” value (Form 4 monohydrate crystals from n-propanol/water after seeding and temperature cycling (Va: 4 cycles 53-20° C.; Vb: 8 cycles; Vc: 19 cycles 43-20° C.), listed as Example Va) is 6.4×10^11 m/Kg; the “filter cake specific resistance” value (Form 4 monohydrate crystals from n-propanol/water after seeding and temperature cycling (Va: 4 cycles 53-20° C.; Vb: 8 cycles; Vc: 19 cycles 43-20° C.), listed as Example Vb) is 2.5×10^11 m/Kg; the “filter cake specific resistance” value (Form 4 monohydrate crystals from n-propanol/water after seeding and temperature cycling (Va: 4 cycles 53-20° C.; Vb: 8 cycles; Vc: 19 cycles 43-20° C.), listed as Example Vc) is recorded as 1.99×10^11 m/Kg.
